Laboratory results reported in patent US6800621B2, “Imidazo[4,5-b]-pyridiniummethyl-containing cephem compounds having broad antibacterial spectrum activity” (Shionogi & Co., Ltd., priority 1998, dated 2004).
Converted amounts (≈) assume the structure as drawn. Counter-ions that a name gives are not always drawn. Like-named read-outs stand apart in the source and are kept apart here.

What was measured:
E.cloacae ATCC 13047 = test: MIC by agar dilution method; format: cell-based; conditions: E.cloacae ATCC 13047, G(−)
Procedure: (§1) The minimal inhibitory concentration (MIC) of compound (I) against various bacteria was determined by an agar dilution method. As reference compounds, used were cefozopran hydrochloride (CZOP) described in JP(A) Kokai H03-47189, cefoselis sulfate (CFSL) described in JP(A) Kokai H07-196665 and WO97/41128, compound A of which 3-side chain is a type of imidazo[4,5-c]pyridiniummethyl, and vancomycin. In the table, “Ex5-3”, for example, represents the end compound of the present invention obtained in Example 5-3, and the others are similarly expressed.

E.cloacae SR4321 = test: MIC by agar dilution method; format: cell-based; conditions: E.cloacae SR4321, G(−)
Procedure: as §1

E.coli NIH JC-2 = test: MIC by agar dilution method; format: cell-based; conditions: E.coli NIH JC-2, G(−)
Procedure: as §1

E.coli SR5028 = test: MIC by agar dilution method; format: cell-based; conditions: E.coli SR5028, G(−)
Procedure: as §1

E.faecalis SR1004 = test: MIC by agar dilution method; format: cell-based; conditions: E.faecalis SR1004, G(+)
Procedure: as §1

P.aeruginosa SR24 = test: MIC by agar dilution method; format: cell-based; conditions: P.aeruginosa SR24, G(−)
Procedure: as §1

P.aeruginosae SR5393 = test: MIC by agar dilution method; format: cell-based; conditions: P.aeruginosae SR5393, G(−)
Procedure: as §1

P.vulgaris CN-329 = test: MIC by agar dilution method; format: cell-based; conditions: P.vulgaris CN-329, G(−)
Procedure: as §1

S.aureus SMITH = test: MIC by agar dilution method; format: cell-based
Procedure: as §1

S.aureus SR14 = test: MIC by agar dilution method; format: cell-based
Procedure: as §1

S.aureus SR3626 = test: MIC by agar dilution method; format: cell-based
Procedure: as §1

S.aureus SR3637 [1] = test: MIC by agar dilution method; format: cell-based
Procedure: as §1

S.marvescens ATCC 13880 = test: MIC by agar dilution method; format: cell-based
Procedure: as §1

S.mitis SR16376 = test: MIC by agar dilution method; format: cell-based
Procedure: as §1

S.pneumoniae SR16675 = test: MIC by agar dilution method; format: cell-based
Procedure: as §1

S.pneumoniae Type 1 = test: MIC by agar dilution method; format: cell-based
Procedure: as §1

S.aureus SR3637 [2] = test: ED50 mouse/S.aureus SR3637; format: in vivo
[3] = Enterobacter cloacae, ATCC13047, read-out: MIC
[4] = Enterobacter cloacae, read-out: MIC
[5] = Escherichia coli, NIHJC2, read-out: MIC
[6] = Escherichia coli, read-out: MIC
[7] = Enterococcus faecalis, read-out: MIC
[8] = Pseudomonas aeruginosa, read-out: MIC
[9] = Proteus vulgaris, CN329, read-out: MIC
[10] = Staphylococcus aureus, S.aureus SMITH, G(+), read-out: MIC
[11] = Staphylococcus aureus, S.aureus SR14, G(+), read-out: MIC
[12] = Staphylococcus aureus, S.aureus SR3626 (MRSA), G(+), read-out: MIC
[13] = Staphylococcus aureus, S.aureus SR3637 (MRSA), G(+), read-out: MIC
[14] = Streptococcus mitis, S.mitis SR16376, G(+), read-out: MIC
[15] = Streptococcus pneumoniae, S.pneumoniae SR16675, G(+), read-out: MIC
[16] = Streptococcus pneumoniae, TYPE1, S.pneumoniae Type 1, G(+), read-out: MIC

| Structure (SMILES) | MIC (E.cloacae ATCC 13047) | MIC (E.cloacae SR4321) | MIC (E.coli NIH JC-2) | MIC (E.coli SR5028) | MIC (E.faecalis SR1004) | MIC (P.aeruginosa SR24) | MIC (P.aeruginosae SR5393) | MIC (P.vulgaris CN-329) | MIC (S.aureus SMITH; S.aureus SMITH, G(+)) | MIC (S.aureus SR14; S.aureus SR14, G(+)) | MIC (S.aureus SR3626; S.aureus SR3626 (MRSA), G(+)) | MIC (S.aureus SR3637 [1]; S.aureus SR3637 (MRSA), G(+)) | MIC (S.marvescens ATCC 13880; S.marvescens ATCC 13880, G(−)) | MIC (S.mitis SR16376; S.mitis SR16376, G(+)) | MIC (S.pneumoniae SR16675; S.pneumoniae SR16675, G(+)) | MIC (S.pneumoniae Type 1; S.pneumoniae Type 1, G(+)) | ED50 (S.aureus SR3637 [2]) | other results |
| --- | --- | --- | --- | --- | --- | --- | --- | --- | --- | --- | --- | --- | --- | --- | --- | --- | --- | --- |
| CCO/N=C(\C(=O)NC1C(=O)N2C(C(=O)[O-])=C(C[n+]3ccc4c(c3)ncn4CCCN)CSC12)c1nsc(N)n1 (stereo not shown) [A, reference compound] | – | – | – | – | – | – | – | – | – | – | – | – | – | – | – | – | – | MIC (E.cloacae ATCC 13047; [3]): 0.48 µg/mL (≈ 0.818 µM); MIC (E.cloacae SR4321; [4]): 12.5 µg/mL (≈ 21.3 µM); MIC (E.coli NIH JC-2; [5]): 0.05 µg/mL (≈ 0.0852 µM); MIC (E.coli SR5028; [6]): 1.56 µg/mL (≈ 2.66 µM); MIC (E.faecalis SR1004; [7]): 50 µg/mL (≈ 85.2 µM); MIC (P.aeruginosa SR24; [8]): 0.78 µg/mL (≈ 1.33 µM); MIC (P.aeruginosae SR5393; read-out: MIC): 3.13 µg/mL (≈ 5.34 µM); MIC (P.vulgaris CN-329; [9]): 0.1 µg/mL (≈ 0.17 µM); MIC (S.aureus SMITH; [10]): 0.78 µg/mL (≈ 1.33 µM); MIC (S.aureus SR14; [11]): 3.13 µg/mL (≈ 5.34 µM); MIC (S.aureus SR3626; [12]): 25 µg/mL (≈ 42.6 µM); MIC (S.aureus SR3637 [1]; [13]): 25 µg/mL (≈ 42.6 µM); MIC (S.marvescens ATCC 13880): 0.1 µg/mL (≈ 0.17 µM); MIC (S.mitis SR16376; [14]): 0.1 µg/mL (≈ 0.17 µM); MIC (S.pneumoniae SR16675; [15]): 0.39 µg/mL (≈ 0.665 µM); MIC (S.pneumoniae Type 1; [16]): 0.0125 µg/mL (≈ 0.0213 µM) |
| CO/N=C(\C(=O)N[C@@H]1C(=O)N2C(C(=O)[O-])=C(Cn3cc[n+]4ncccc34)CS[C@H]12)c1nsc(N)n1 [CZOP, cefozopran hydrochloride, reference compound] | – | – | – | – | – | – | – | – | – | – | – | – | – | – | – | – | – | MIC (E.cloacae ATCC 13047; [3]): 0.2 µg/mL; MIC (E.cloacae SR4321; [4]): 6.25 µg/mL; MIC (E.coli NIH JC-2; [5]): 0.05 µg/mL; MIC (E.coli SR5028; [6]): 0.78 µg/mL; MIC (E.faecalis SR1004; [7]): 25 µg/mL; MIC (P.aeruginosa SR24; [8]): 0.78 µg/mL; MIC (P.aeruginosae SR5393; read-out: MIC): 1.56 µg/mL; MIC (P.vulgaris CN-329; [9]): 0.2 µg/mL; MIC (S.aureus SMITH; [10]): 0.78 µg/mL; MIC (S.aureus SR14; [11]): 0.78 µg/mL; MIC (S.aureus SR3626; [12]): 50 µg/mL; MIC (S.aureus SR3637 [1]; [13]): 50 µg/mL; MIC (S.marvescens ATCC 13880; S.marvescens ATCC 13880, G(−), read-out: MIC): 0.1 µg/mL; MIC (S.mitis SR16376; [14]): 0.2 µg/mL; MIC (S.pneumoniae SR16675; [15]): 0.78 µg/mL; MIC (S.pneumoniae Type 1; [16]): 0.05 µg/mL |
| CCON=C(C(=O)NC1C(=O)N2C(C(=O)[O-])=C(C[n+]3cccc4c3ncn4C3CCNC3)CSC12)c1nsc(N)n1.Cl (stereo not shown) [Ex4-1] | 0.78 µg/mL | 25 µg/mL | 0.2 µg/mL | 3.13 µg/mL | 50 µg/mL | 0.78 µg/mL | 3.13 µg/mL | 0.78 µg/mL | 0.78 µg/mL | 1.56 µg/mL | 3.13 µg/mL | 6.25 µg/mL | 0.2 µg/mL | 0.1 µg/mL | 0.39 µg/mL | 0.025 µg/mL | 11.3 mg/kg | – |
| CCON=C(C(=O)NC1C(=O)N2C(C(=O)[O-])=C(C[n+]3cccc4c3ncn4CCCN)CSC12)c1nsc(N)n1.Cl (stereo not shown) [Ex5-2] | 0.78 µg/mL | 25 µg/mL | 0.39 µg/mL | 3.13 µg/mL | 50 µg/mL | 0.78 µg/mL | 3.13 µg/mL | 0.78 µg/mL | 0.78 µg/mL | 0.78 µg/mL | 3.13 µg/mL | 3.13 µg/mL | 0.39 µg/mL | 0.2 µg/mL | 0.78 µg/mL | 0.025 µg/mL | – | – |
| Cl.NCCCn1cnc2c1ccc[n+]2CC1=C(C(=O)[O-])N2C(=O)C(NC(=O)C(=NOCF)c3nsc(N)n3)C2SC1 (stereo not shown) [Ex5-3] | 0.39 µg/mL | 12.5 µg/mL | 0.1 µg/mL | 1.56 µg/mL | 100 µg/mL | 1.56 µg/mL | 6.25 µg/mL | 0.39 µg/mL | 0.78 µg/mL | 0.78 µg/mL | 3.13 µg/mL | 3.13 µg/mL | 0.1 µg/mL | 0.2 µg/mL | 0.78 µg/mL | 0.025 µg/mL | 5.66 mg/kg | – |
| CCON=C(C(=O)NC1C(=O)N2C(C(=O)[O-])=C(C[n+]3cccc4c3ncn4CCCNC)CSC12)c1nsc(N)n1.Cl (stereo not shown) [Ex6-2] | 0.78 µg/mL | 25 µg/mL | 0.39 µg/mL | 3.13 µg/mL | 50 µg/mL | 1.56 µg/mL | 6.25 µg/mL | 0.78 µg/mL | 1.56 µg/mL | 1.56 µg/mL | 3.13 µg/mL | 3.13 µg/mL | 0.39 µg/mL | 0.1 µg/mL | 0.78 µg/mL | 0.025 µg/mL | 7.92 mg/kg | – |
| CNCCCn1cnc2c1ccc[n+]2CC1=C(C(=O)[O-])N2C(=O)C(NC(=O)C(=NOCF)c3nsc(N)n3)C2SC1.Cl (stereo not shown) [Ex6-3] | 0.78 µg/mL | 12.5 µg/mL | 0.2 µg/mL | 1.56 µg/mL | 50 µg/mL | 3.13 µg/mL | 6.25 µg/mL | 0.39 µg/mL | 0.78 µg/mL | 0.78 µg/mL | 6.25 µg/mL | 6.25 µg/mL | 0.2 µg/mL | 0.2 µg/mL | 0.78 µg/mL | 0.025 µg/mL | 6.43 mg/kg | – |
| CN[C@H](CC(C)C)C(=O)N[C@H]1C(=O)N[C@@H](CC(N)=O)C(=O)N[C@H]2C(=O)N[C@H]3C(=O)N[C@H](C(=O)N[C@H](C(=O)O)c4cc(O)cc(O)c4-c4cc3ccc4O)[C@H](O)c3ccc(c(Cl)c3)Oc3cc2cc(c3O[C@@H]2O[C@H](CO)[C@@H](O)[C@H](O)[C@H]2O[C@H]2C[C@](C)(N)[C@H](O)[C@H](C)O2)Oc2ccc(cc2Cl)[C@H]1O [VCM, vancomycin, reference compound] | – | – | – | – | – | – | – | – | – | – | – | – | – | – | – | – | – | MIC (S.aureus SMITH; Staphylococcus aureus): 0.78 µg/mL (≈ 0.538 µM); MIC (S.aureus SR14; Staphylococcus aureus, SR14): 0.78 µg/mL (≈ 0.538 µM); MIC (S.aureus SR3626; Staphylococcus aureus, MRSA): 3.13 µg/mL (≈ 2.16 µM); MIC (S.aureus SR3637 [1]; Staphylococcus aureus, MRSA): 3.13 µg/mL (≈ 2.16 µM); MIC (S.mitis SR16376; Streptococcus mitis, SR16376): 0.39 µg/mL (≈ 0.269 µM); MIC (S.pneumoniae SR16675; Streptococcus pneumoniae, SR16675): 0.2 µg/mL (≈ 0.138 µM); MIC (S.pneumoniae Type 1; Streptococcus pneumoniae, TYPE1): 0.39 µg/mL (≈ 0.269 µM); ED50 (S.aureus SR3637 [2]; Staphylococcus aureus, read-out: ED50): 5.66 mg/kg |
